Results published in US20080260896A1 (priority 2007, published 2008).
Read-outs that look alike come from different tables or passages of the source. Marks after values point to notes of the source that are not given here.

Tests used:
[1] = Crude glycerin as pellet binder: pellet mill current usage and pellet durability index (PDI); type: physicochemical
Description: In this embodiment, the crude glycerin [FROM SHEET WHEN GET FROM NEIL] […] Two corn/soy diets, one with low fat and one with high fat, and two high fiber diets, one with low fat and one with high fat, were formulated to provide the four treatment groups. […] Table 1 references diet formulations tested. The “HFP” referred to in Table 1 refers to a High Fat Product available from Archer Daniels Midland Company, Decatur, Ill. […] [table]

[2] = Glycerin as feed ingredient for lactating dairy cattle; type: in vivo, lactating Holstein cows; details: for Estimated Net Energy for Lactation (of the entire diet): calculated from energy output in milk and body weight increase
Procedure: In another embodiment, an evaluation was conducted to assess practical energy value of using glycerin as a feed ingredient for lactating dairy cattle. […] Diets were balanced to meet energy requirements based on the control diet, be isonitrogenous, and balanced to meet or exceed requirements for all other nutrients. The basal ration contained corn silage, alfalfa haylage, hay, high-moisture corn, vitamins, and minerals, and was formulated to contain about 17% CP, 6.5% RUP, and 10.5 RDP (DM basis).

[3] = Lactating Holstein cows fed heat stress product with and without glycerin; type: in vivo; details: heat stress product + 454 g/d glycerin
Description: Forty-eight lactating Holstein cows (twelve per treatment) were used in a randomized complete block design to determine the effect of feed additives on production efficiency. […] Treatments 2 and 4 will be the focus of this example. Diets were corn silage based and formulated to be iso-nitrogenous. Cows were housed in a free-stall barn with access to individual stalls. Training for Calan door use was initiated in mid-May, the standardization period occurred in early June and the treatment period started in late June and continued through early August. Feed was mixed and delivered once daily and fed behind electronic Calan doors, allowing individual intake to be determined. Ad libitum intakes were adjusted to achieve orts of 7-10% daily. Cows were milked twice daily at 0400 and 1500. Feed intake, milk yield and composition, body temperature, and body weight changes were monitored.

[4] = Crude glycerin in finishing cattle diets: carcass merit; type: in vivo, Angus-cross steers; details: for Adjusted Carcass Live Wt / Backfat Depth / Choice 0 / Choice - / Dress / Hot Carcass Weight / KPH Fat / Live Weight / Marbling Score / Ribeye Area / YG 2 / YG 3 / YG 4 / Yield Grade / Carcass Value: 10% DM glycerin; for Carcass Value: calculated from carcass weight, premiums and discounts
Procedure: All cattle were adapted on a common 4-step transition prior to initiation of the evaluation. Cattle were blocked by weight (4 blocks) with four pens per treatment (9-10 head/pen). […] Individual weights were collected at 28-day intervals throughout with steers terminated on three harvest dates (days on feed 116 to 153 days) based on weight and condition. Six monthly periods and cumulative (d 1-116 and 1-153) periods were analyzed. […] Carcass value was calculated using actual carcass weight and associated premiums and discounts for quality and yield grades.

[5] = Gross energy of crude glycerin sample; type: physicochemical; details: test crude glycerin sample with 14.8% moisture
[6] = male, crossbred, cattle, in vivo
Description: A subset of ten cattle (5 from each treatment) were used for baseline and withdrawal sampling of rumen fluid and blood plasma for residual methanol quantification. […] Withdrawal samples were collected from the same subset of animals.

[7] = lambs
Description: Lambs received a common receiving ration for one week prior to allotment. Lambs were blocked by weight (4 blocks) and fed in individual crates for […]. […] Initial and final weights were collected on consecutive days and an interim weight was taken on day 14. Periods were: 1) days 1 to 14, 2) days 15 to 29, and 3) cumulative (days 1 to 29).

[8] = DDGS:Soy Hulls 10:0 diet (Treatment 2)
[9] = DDGS:Soy Hulls 30:15 diet (Treatment 4)

OCC(O)CO [crude glycerin, glycerin]
PDI ([1]; Corn/Soy High Fat diet, crude glycerin 2.5%): 54 | PDI ([1]; Corn/Soy High Fat diet, crude glycerin 5.0%): 66 | PDI ([1]; Corn/Soy Low Fat diet, crude glycerin 2.5%): 89 | PDI ([1]; Corn/Soy Low Fat diet, crude glycerin 5.0%): 93 | PDI ([1]; High Fiber High Fat diet, crude glycerin 2.5%): 89 | PDI ([1]; High Fiber High Fat diet, crude glycerin 5.0%): 91 | PDI ([1]; High Fiber Low Fat diet, crude glycerin 2.5%): 98 | PDI ([1]; High Fiber Low Fat diet, crude glycerin 5.0%): 98 | Body Weight change ([2]; 5% glycerin fed (DM basis)): 89.6^ab lbs. | Body condition score change ([2]; 5% glycerin fed (DM basis)): 0.1 | Feed intake ([2]; 5% glycerin fed (DM basis)): 53.9 lb/day | Milk production ([2]; 5% glycerin fed (DM basis)): 81.2 lb/day | Milk urea Nitrogen ([2]; 5% glycerin fed (DM basis)): 10.9^b mg/dl | Somatic Cell Count ([2]; 5% glycerin fed (DM basis)): 490 1000 cells/ml | Estimated Net Energy for Lactation (of the entire diet) ([2]; 5% glycerin fed (DM basis)): 1.55 mcal/kg | Body Weight change ([2]; 10% glycerin fed (DM basis)): 109.3^b lbs. | Body condition score change ([2]; 10% glycerin fed (DM basis)): 0.1 | Feed intake ([2]; 10% glycerin fed (DM basis)): 54.1 lb/day | Milk production ([2]; 10% glycerin fed (DM basis)): 82.1 lb/day | Milk urea Nitrogen ([2]; 10% glycerin fed (DM basis)): 10.7^b mg/dl | Somatic Cell Count ([2]; 10% glycerin fed (DM basis)): 137 1000 cells/ml | Estimated Net Energy for Lactation (of the entire diet) ([2]; 10% glycerin fed (DM basis)): 1.57 mcal/kg | Body Weight change ([2]; 15% glycerin fed (DM basis)): 113.5^b lbs. | Body condition score change ([2]; 15% glycerin fed (DM basis)): 0.1 | Feed intake ([2]; 15% glycerin fed (DM basis)): 53.0 lb/day | Milk production ([2]; 15% glycerin fed (DM basis)): 80.0 lb/day | Milk urea Nitrogen ([2]; 15% glycerin fed (DM basis)): 10.2^b mg/dl | Somatic Cell Count ([2]; 15% glycerin fed (DM basis)): 144 1000 cells/ml | Estimated Net Energy for Lactation (of the entire diet) ([2]; 15% glycerin fed (DM basis)): 1.58 mcal/kg | NE Balance [3]: 6.15 mcal/day | NE intake [3]: 38.74 mcal/day | NE milk [3]: 27.07 mcal/day | Body Weight change ([3]; 56 days): greater | Milk fat ([3]; 56 days): 3.90% | Milk fat, milk protein, and energy corrected milk yield ([3]; 56 days): tended greater | Milk production ([3]; 56 days): not affected by treatment group | Milk protein ([3]; 56 days): 2.93% | Retained net energy for lactation and/or body weight gain ([3]; 56 days): significantly greater | Milk ([3]; 56 days, all cows): 38.53 kg/day | DMI ([3]; 56 days, listed as Glycerin): 23.49 kg/day | DMI ([3]; 56 days, listed as glycerin): not different among treatment groups | Milk, Multiparous ([3]; multiparous cows): 36.63 kg/day | Milk, Primiparous ([3]; primiparous cows): 40.42 kg/day | ECM (energy corrected milk) ([3]; (.3246 × kg milk) + (12.86 × kg fat) + (7.04 × kg protein)): 39.40 kg/day | BW change ([3]; difference in body weights using a weekly rolling average): 0.779 kg/day | Adjusted Carcass Live Wt [4, 8]: 567.9^a kg | Backfat Depth [4, 8]: 1.40 cm | Choice 0 [4, 8]: 66.7% | Choice - [4, 8]: 94.4% | Dress [4, 8]: 61.59% | Hot Carcass Weight [4, 8]: 357.7^a kg | KPH Fat [4, 8]: 1.90% | Live Weight [4, 8]: 581.0^a kg | Marbling Score [4, 8]: 623.1 | Ribeye Area [4, 8]: 85.49 sq cm | YG 2 [4, 8]: 44.4% | YG 3 [4, 8]: 55.6% | YG 4 [4, 8]: 0.0% | Yield Grade [4, 8]: 3.01 | Carcass Value [4, 8]: 1038.6^a | Adjusted Carcass Live Wt [4, 9]: 551.4^ab kg | Backfat Depth [4, 9]: 1.48 cm | Choice 0 [4, 9]: 65.0% | Choice - [4, 9]: 95.0% | Dress [4, 9]: 61.65% | Hot Carcass Weight [4, 9]: 347.4^ab kg | KPH Fat [4, 9]: 1.87% | Live Weight [4, 9]: 563.3^ab kg | Marbling Score [4, 9]: 630.1 | Ribeye Area [4, 9]: 84.86 sq cm | YG 2 [4, 9]: 45.0% | YG 3 [4, 9]: 55.0% | YG 4 [4, 9]: 0.0% | Yield Grade [4, 9]: 3.07 | Carcass Value [4, 9]: 1008.5^ab | Adjusted Carcass Live Wt ([4]; main effect over both diets): 559.6 kg | Backfat Depth ([4]; main effect over both diets): 1.44 cm | Choice 0 ([4]; main effect over both diets): 65.8% | Choice - ([4]; main effect over both diets): 94.7% | Dress ([4]; main effect over both diets): 61.62% | Hot Carcass Weight ([4]; main effect over both diets): 352.6 kg | KPH Fat ([4]; main effect over both diets): 1.88% | Live Weight ([4]; main effect over both diets): 572.2 kg | Marbling Score ([4]; main effect over both diets): 626.6 | Ribeye Area ([4]; main effect over both diets): 85.18 sq cm | YG 2 ([4]; main effect over both diets): 44.7% | YG 3 ([4]; main effect over both diets): 55.3% | YG 4 ([4]; main effect over both diets): 0.0% | Yield Grade ([4]; main effect over both diets): 3.04 | Carcass Value ([4]; main effect over both diets): 1023.5 | final and hot carcass weight, ribeye area, carcass value versus control ([4]; steers fed 10% crude glycerin): tended (P<0.10) to have greater final and hot carcass weight, ribeye area, and resulting carcass value | Gross energy [5]: 3845 kcal/kg | animals with measurable methanol in rumen fluid [6]: 50% | animals with measurable methanol in rumen fluid ([6]; 16 day): 100% | methanol in rumen fluid ([6]; 16 day): ≤ 23.77 ppm | Final weight ([7]; 0 to 20% crude glycerin): not significantly different | morbidity and mortality, treatment effects ([7]; 0 to 20% crude glycerin): treatment effects were not different | cumulative DMI ([7]; 5% crude glycerin): 1.26 kg/day | cumulative DMI ([7]; 10% crude glycerin): 1.21 kg/day | cumulative DMI ([7]; 15% crude glycerin): 1.27 kg/day | cumulative DMI ([7]; 20% crude glycerin): 1.20 kg/day | Cumulative ADG ([7]; days 1 to 29, 5% crude glycerin): 0.40 kg/day | Cumulative ADG ([7]; days 1 to 29, 10% crude glycerin): 0.36 kg/day | Cumulative ADG ([7]; days 1 to 29, 15% crude glycerin): 0.39 kg/day | Cumulative ADG ([7]; days 1 to 29, 20% crude glycerin): 0.36 kg/day | palatability ([7]; levels of up to 20% dry matter (DM) inclusion): not a concern
